Molecules are shown by their SMILES.

The source of these data is patent US20220040144A1, “COMPOSITIONS AND METHODS FOR THE TREATMENT OF CUTANEOUS T CELL LYMPHOMA (CTCL)” (The State of Israel, Ministry of Agriculture & Rural …, priority 2018, published 2022).

The test system of one series is HUT78 cells. As to the kind of experiment: XTT cell viability assay on HUT78 cells. The series is classed as cell-based, human. Conditions: CBD only, concentration equal to that in combined S4+S5 (7.3 μg/ml), 48 hours. (In general: Tetrazolium dyes change colour on reduction, which living cells bring about.)
The subject of a further series is MyLa cells. As to the kind of experiment: XTT cell viability assay on MyLa cells, with Bliss synergy analysis. Conditions: CBD 7.3 μg/ml, CBG 3.5 μg/ml, THC 0.044 μg/ml, CBC 0.027 μg/ml (as in S4 5 + S5 6 μg/mL), 48 hours.

Method for HUT78 cells: (§1) XTT Cell Viability Assays—Cells were seeded in 96-wells plates at 10,000 cells per well in triplicates in DMEM or RPMI640 growing media. The following day, cells were treated with the different extracts, separated fractions and combinations thereof or pure compounds; or media or solvent only as control. To evaluate involvement of the CB1 and CB2 receptors, 10 μM of AM251 (a CB1 receptor inverse agonist, TOCRIS, 1117/1) or SR144528 (a CB2 receptor inverse agonist, Abcam) were added to the cells 1 hour prior to treatment. Cells were incubated for 48 hours and following XTT (2,3-bis(2-methoxy-4-nitro-5-sulfophenyl)-5-[(phenylamino)-carbonyl]-2H-tetrazolium inner salt) reduction was used to quantify viability according to manufacturer's instruction (BI, Kibbutz Beit-Haemek, Israel). Briefly, cells were incubated with XTT reagent for 2 hours at 37° C. in a humidified 5% CO2, 95% air atmosphere. Absorbance was recorded by a photometer Synergy H1 hybrid reader (BioTek) at 490 nm with 650 nm of reference wavelength. Cells survival was estimated according to the following equation: % cell survival=100×(At−Ac)(treatment)/(At−Ac)(control), where At and Ac are the absorbencies (490 nm) of the XTT colorimetric reaction in treated and control cultures, respectively, minus non-specific absorption measured at 650 nm. Absorbance of medium alone was also deducted from specific readings. […]
Method for MyLa cells: as §1

In the case of `C=C(C)[C@@H]1CCC(C)=C[C@H]1c1c(O)cc(CCCCC)cc1O` [CBD, cannabidiol], the “cell death of HuT-78 cells” value in the series with HUT78 cells is listed as 50%. The “cytotoxicity of pure cannabinoids on My-La cells (in words)” value in the series with MyLa cells is “did not induce cell death”.
